Measurements: patent US9538734B2, “Germ cell ablation compounds and uses thereof” (THE GENERAL HOSPITAL CORPORATION, priority 2013, dated 2017)

Key:
deadend 3′UTR = experiment: Translation of GFP message tagged with fragments of the deadend 3′UTR; settings: in vivo
Source text: FIG. 26 illustrates that, in addition to regulating the translation of proteins containing elements from the nanos1 3′ UTR, primordazine blocks translation of proteins from mRNAs containing the deadend 3′UTR.

[1] = tested on: primordial germ cells (PGCs); experiment: PGC ablation in transgenic zebrafish embryos expressing GFP in PGCs (small molecule screen); type: in vivo
Method: (§1) In an effort to discover pathways essential for PGC maintenance, a small molecule screen for compounds that promote disappearance of PGCs was performed. The screen was performed with transgenic zebrafish embryos that express GFP exclusively in PGCs. Of 7,000 small molecules screened, three caused disappearance of PGCs without causing other observable changes in embryonic development. The three PGC-ablating compounds were close structural analogs of each other, and the representative compound from this class was named primordazine (FIG. 1A). […] PGC loss was confirmed by multiple PGC lineage markers (FIG. 1B).
Optimization is driven primarily by potency, meaning that each compound acquired is tested for potency, and potency changes influence subsequent rounds of compound design. For testing compounds, 3-5 transgenic zebrafish embryos (expressing GFP from the vasa promoter) are placed in each well of clear-bottom, black-wall 96 well plates. Embryos are treated with DMSO or varying doses of a compound in two-fold dilutions from 8 uM to 16 nM, beginning at 2 h postfertilization. At 24 h, the plate is loaded onto the screening microscope, which systematically scans wells and captures fluorescent images of fish in each well. The efficacy of each compound dose in ablating PGCs is recorded, yielding an EC50 for each compound.

zebrafish embryos [2] = experiment: Observable effects on embryonic development, apoptosis; type: in vivo
Method: as §1

dCTPP1 = target: T1, dCTPP1 (Homo sapiens, UniProt Q9H773); experiment: Western blot confirmation of binding to primordazine beads
T1 sequence (Q9H773 1-170): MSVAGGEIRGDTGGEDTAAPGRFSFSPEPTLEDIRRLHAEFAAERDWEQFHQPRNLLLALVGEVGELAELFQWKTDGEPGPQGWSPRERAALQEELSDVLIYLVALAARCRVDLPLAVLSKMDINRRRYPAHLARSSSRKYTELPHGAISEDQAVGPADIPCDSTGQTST

DHX9 = experiment: Primordazine affinity matrix pull-down with iTRAQ; type: binding; settings: whole zebrafish lysates, with and without competition from free primordazine
Method: A primordazine derivative was synthesized in which an 8-atom linker was appended from the indole nitrogen, terminating in a carboxylic acid (FIG. 4B). […] The derivatized primordazine was then coupled to Affi-Gel 102 agarose beads, generating an affinity matrix (FIG. 4C). The affinity matrix was incubated with whole zebrafish lysates with and without competition from free primordazine, and iTRAQ was used to identify any primordazine-binding proteins. An RNA helicase, DHX9, was identified as binding specifically to the affinity matrix, along with two RNA-binding adapter proteins HNRNPH1 and HNRNPA2B1.

nanos1 mRNA = nanos1 mRNA level (quantitative PCR) and localization (fluorescent in situ hybridization, confocal microscopy); type: in vivo, zebrafish
Source text: Therefore, mRNA destabilization is not the mechanism by which primordazine blocks nanos1 expression. Next, fluorescent in situ hybridization and confocal microscopy were used to examine the localization of nanos1 mRNA within germ cells.

PRE-containing mRNAs = experiment: Translation of GFP mRNA tagged with nanos1 3′UTR in mammalian cell lines (western blotting); type: cell-based; settings: GFP mRNA tagged with 120 bases from nanos1 3′UTR, transfected mammalian cell lines
Method: GFP mRNA was tagged with 120 bases from the nanos1 3′UTR and transfected into various mammalian cell lines. The effect of primordazine was determined by western blotting.

GFP labeled PGCs = experiment: Count of GFP labeled PGCs in tilapia embryos exposed to primordazine; type: in vivo, Tilapia (Oreochromis niloticus); settings: for reduction in PGCs number: 5 uM; for GFP labeled cells in midline trunk region: 1 cell stage embryos, 3 day old; for reduction in PGCs number compared to control: after 3 days, 28° C.
Method: Tilapia (Oreochromis niloticus) lines used in this study are derived from a Brazilian strain obtained from a US commercial producer. To study PGCs, assays were performed on embryos from female tilapia carrying the Zpc5:eGFP:tnos 3′UTR construct which produce embryos with GFP labeled PGCs. The tilapia Zpc5 promoter is an oocyte specific promoter, active during oogenesis prior to the first meiotic division. As such, all embryos from an heterozygous transgenic female inherit the eGFP:tnos 3′UTR mRNA, which localizes and become expressed exclusively in PGCs through the action of cis-acting RNA element in their 3′UTR (tilapia nanos 3′UTR). In this system GFP expression in the embryo is strictly maternal. Thus, similarly to zebrafish nos1 3′UTR, tilapia nanos 3′ UTR (tnos 3′UTR) can deliver mRNA and subsequently heterologous protein expression to the PGCs in developing embryos. In this line, GFP expression is first observed in 2 day old embryos, progeny of transgenic female. At 3 days post fertilization (dpf) in 28° C. water, GFP-expressing cells coalesced in two bilateral rows on the midline above the intestine (FIG. 41A). The GFP labeled primordial germ cell can be visualized for up to 6 days post fertilization but fluorescence starts to fade between days 4 & 5. Primordazine treatment: Embryos at different developmental stages were placed into hatching water at 28° C. in plastic Petri dishes with gentle stirring. The first cell division takes place approximately two hours post fertilization (hpf) and gastrulation begins at around 10 hpf. We transferred pre-gastrula (2 hpf, 5 hpf) and post-gastrula embryos (15 hpf) to 96 well plates (1-2 embryos/well) prefilled with hatching water supplemented with 2 fold dilution series of primordazine from 20 uM to 2.5 uM or DMSO (control). The 96 well plate was placed under gentle stirring in a temperature control room at 28° C. At time intervals, embryos were analyzed for GFP expression under a fluorescence dissecting microscope (Zeiss Stereo Discovery.V8) equipped with a GFP filter set. To quantify primordazine activity, 3 day old embryos were placed in fresh water and PGCs were counted. At this stage, in the non-treated control group, approximately 95% of PGCs have migrated to the genital ridges.

[3] = tested on: primordazine response element (PRE) of nanos1 3′ UTR; experiment: Translation of injected GFP reporter RNA fused to nanos1 3′ UTR / PRE; type: in vivo, zebrafish; settings: for translation of EGFP: EGFP mRNA fused to 120 bases of nanos1 3′UTR
Source text: During the process of confirming PGC loss in primordazine-treated embryos, it was discovered that GFP translation was highly sensitive to primordazine treatment when fused to the 3′ UTR of the nanos1 gene, but not when fused to other 3′ UTRs. The 3′ UTR of the nanos1 gene was examined for elements capable of conferring primordazine sensitivity. […] This sequence is called the Primordazine Response Element (PRE). […] When other sequences from the nanos1 3′ UTR are used, primordazine has no effect on GFP expression.
mRNA translation is tested using the same GFP reporter depicted in FIG. 2. This reporter consists of GFP mRNA fused to the nanos1 3′ UTR with a mutant miR-430 site. When injected into one-cell stage zebrafish, GFP is expressed in both germ and somatic cells (Giraldez, A. J. et al. Zebrafish MiR-430 promotes deadenylation and clearance of maternal mRNAs. Science 312, 75-79 (2006); Mishima, Y. et al. Differential regulation of germline mRNAs in soma and germ cells by zebrafish miR-430. Curr Biol 16, 2135-2142 (2006)). […] As such, the quantity of mRNA is increased as detected by qPCR, but the quantity of GFP protein diminishes, as determined by quantitative fluorescence microscopy (see FIG. 2 for an example). Mutant animals were injected with the GFP reporter mRNA and quantify the amount of mRNA and protein present at 11 and 24 hours. Attention was paid to the effects of the mutations on baseline translation of GFP and also for effects of the mutations on responsiveness to primordazine.

pgam5 = target: T2, pgam5 (Homo sapiens, UniProt Q96HS1); experiment: Western blot confirmation of binding to primordazine
T2 sequence (Q96HS1 1-289): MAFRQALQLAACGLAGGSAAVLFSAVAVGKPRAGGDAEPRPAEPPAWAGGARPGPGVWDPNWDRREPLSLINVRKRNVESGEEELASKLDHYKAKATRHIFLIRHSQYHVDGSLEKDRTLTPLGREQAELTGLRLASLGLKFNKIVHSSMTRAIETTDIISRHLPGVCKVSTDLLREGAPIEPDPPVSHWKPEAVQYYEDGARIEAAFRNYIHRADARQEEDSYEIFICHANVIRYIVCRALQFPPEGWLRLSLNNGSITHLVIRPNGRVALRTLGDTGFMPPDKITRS

zebrafish embryos [4] = experiment: Sex of adults after embryonic treatment; type: in vivo; settings: embryos treated during early development

binding of dCTPP1 (dCTPP1): bind | binding of DHX9 (DHX9): Binds | binding of pgam5 (pgam5): bind
SMILES: CCC(Sc1nnc2c3ccccc3n(CC)c2n1)C(=O)Nc1cccc(C(C)=O)c1 (centres unmarked) [primordazine]
translation of EGFP from mRNAs containing the deadend 3′UTR (deadend 3′UTR): blocks the translation | concentration for maximal efficacy of germ cell ablation ([1]; egg / hatching water concentration): 6 µM | PGC-ablating activity ([1]; zebrafish embryos, GFP in PGCs): ablates PGCs in a dose-dependent manner | effective concentration in zebrafish embryos ([1]; zebrafish, in vivo): high nanomolar to low micromolar | apoptosis (zebrafish embryos [2]; FIG. 12): does not cause apoptosis | effect on development or organogenesis (zebrafish embryos [2]; effective doses): no visible effect | localization of nanos1 mRNA within germ cells (nanos1 mRNA; fluorescent in situ hybridization, confocal microscopy): became localized to discrete puncta | nanos1 mRNA levels (nanos1 mRNA; quantitative PCR): no decrease | translation of PRE-containing mRNAs (PRE-containing mRNAs): inhibits translation | reduction in PGCs number (GFP labeled PGCs; later time point (13 hour old embryos)): 41% | reduction in PGCs number (GFP labeled PGCs; treatment begins at 2 hpf): 72% | GFP labeled cells in midline trunk region (GFP labeled PGCs; 10 uM): marked reduction in number | reduction in PGCs number compared to control (GFP labeled PGCs; 10 uM, 5 hours old embryos): 47% | GFP labeled cells in midline trunk region (GFP labeled PGCs; 20 uM): complete disappearance | reduction in PGCs number compared to control (GFP labeled PGCs; 20 uM, 5 hours old embryos): 67% | level of GFP intensity in PGCs (GFP labeled PGCs; 5 hours old embryos): reduced | translation of EGFP ([3]; absence of polyadenylation): effectively blocked translation | translation of EGFP ([3]; polyadenylated in vitro prior to injection): failed to block translation | translation of GFP protein ([3]; GFP mRNA followed by the nanos1 3′ UTR): prevents its translation | stability of GFP reporter mRNA ([3]; GFP mRNA with nanos1 3′ UTR): stabilizes the mRNA | translation of GFP RNA ([3]; PRE placed in its 3′ UTR, RNA injected into zebrafish): blocked | GFP expression ([3]; other sequences from the nanos1 3′ UTR): no effect | sex when adult (zebrafish embryos [4]): tend to be males
